Values of other authors in PubChem BioAssay AID1259409 (Chemical Carcinogenesis Research Information System (CCRIS), 2018).

Test system: rodent chemically induced tumor inhibition, incidence and multiplicity
Assay: CCRIS tumor inhibitor studies

SMILES	tumour outcome (control, treated, inhibition, significance) (Carcinogen: 4-(METHYLNITROSAMINO)-1-(3-PYRIDYL)-1-BUTANONE, 64091-91-4, Dose [Inhibitor]: 0, 560 PPM IN DRINKING WATER FOR 13 WK BEGINNING 2 WK PRIOR TO CARCINOGEN TREATMENT (STUDY DURATION: 18 WK), Route [Inhibitor]: ORAL, Species: MOUSE, Strain/Sex: STRAIN-A/FEMALE, Target Tissue: Type of Lesion: LUNG: ADENOMA, Dose [Carcinogen]: 11.65 MG/KG 3/WK FOR 10 WK, Promoter: NONE USED)	tumour outcome (control, treated, inhibition, significance) (Carcinogen: 4-NITROQUINOLINE-N-OXIDE (56-57-5), Dose [Inhibitor]: 0.05% IN DIET FOR 25 WKS (STUDY DURATION: 25 WKS), Route [Inhibitor]: DIET, Species: MOUSE, Strain/Sex: DDY/MALE (10,10)/(10,?), Target Tissue: Type of Lesion: LUNG, Dose [Carcinogen]: 10 MG/KG BW ONCE, Promoter: CACODYLIC ACID (75-60-5))	tumour outcome (control, treated, inhibition, significance) (Carcinogen: 7,12-DIMETHYLBENZ[A]ANTHRACENE, 57-97-6, Dose [Inhibitor]: 0, 0.5% (81% EGCG) IN DIET OF RATS WITH TUMORS AT 13 WK POST CARCINOGEN DOSE (STUDY DURATION: 36 WK), Route [Inhibitor]: ORAL, Species: RAT, Strain/Sex: SPRAGUE-DAWLEY/FEMALE, Target Tissue: Type of Lesion: MAMMARY GLAND: CARCINOMA, Dose [Carcinogen]: 50 MG/KG BW ONCE, Promoter: NONE USED)	tumour outcome (control, treated, inhibition, significance) (Carcinogen: 7,12-DIMETHYLBENZ[A]ANTHRACENE, 57-97-6, Dose [Inhibitor]: 0, 0.5% (81% EGCG) IN DIET OF RATS WITHOUT TUMORS AT 13 WK POST CARCINOGEN DOSE (STUDY DURATION: 36 WK), Route [Inhibitor]: ORAL, Species: RAT, Strain/Sex: SPRAGUE-DAWLEY/FEMALE, Target Tissue: Type of Lesion: MAMMARY GLAND: CARCINOMA, Dose [Carcinogen]: 50 MG/KG BW ONCE, Promoter: NONE USED)	tumour outcome (control, treated, inhibition, significance) (Carcinogen: 7,12-DIMETHYLBENZ[A]ANTHRACENE, 57-97-6, Dose [Inhibitor]: 0, 0.5% POLYPHEN E (58.4% EGCG) IN DIET OF RATS WITH TUMORS AT 13 WK POST CARCINOGEN DOSE (STUDY DURATION: 36 WK), Route [Inhibitor]: ORAL, Species: RAT, Strain/Sex: SPRAGUE-DAWLEY/FEMALE, Target Tissue: Type of Lesion: MAMMARY GLAND: CARCINOMA, Dose [Carcinogen]: 50 MG/KG BW ONCE, Promoter: NONE USED)	tumour outcome (control, treated, inhibition, significance) (Carcinogen: 7,12-DIMETHYLBENZ[A]ANTHRACENE, 57-97-6, Dose [Inhibitor]: 0, 5 UMOL IN 0.2 ML ACETONE 1/D FOR 7 D PRIOR TO CARCINOGEN DOSE (STUDY DURATION: 16 WK), Route [Inhibitor]: DERMAL, Species: MOUSE, Strain/Sex: SENCAR/FEMALE, Target Tissue: Type of Lesion: SKIN: TUMOR, Dose [Carcinogen]: 10 NMOL IN 0.2 ML ACETONE ONCE, Promoter: 12-O-TETRADECANOYLPHORBOL-13-ACETATE, 16561-29-8)	tumour outcome (control, treated, inhibition, significance) (Carcinogen: N-ETHYL-N'-NITRO-N-NITROSGUANIDINE, 4245-77-6, Dose [Inhibitor]: 0, 0.005% IN DIET FOR 12 WK BEGINNING POST CARCINOGEN TREATMENT (STUDY DURATION: 16 WK), Route [Inhibitor]: ORAL, Species: MOUSE, Strain/Sex: C57BL/MALE, Target Tissue: Type of Lesion: DUODENUM: TUMOR, Dose [Carcinogen]: 100 MG/L IN DRINKING WATER FOR 4 WK, Promoter: NONE USED)	tumour outcome (control, treated, inhibition, significance) (Carcinogen: N-ETHYL-N'-NITRO-N-NITROSOGUANIDINE, 4245-77-6, Dose [Inhibitor]: 0, 0.005% IN DIET FOR 12 WK BEGINNING POST CARCINOGEN TREATMENT (STUDY DURATION: 16 WK), Route [Inhibitor]: ORAL, Species: MOUSE, Strain/Sex: C57BL/MALE, Target Tissue: Type of Lesion: DUODENUM: TUMOR, Dose [Carcinogen]: 100 MG/L IN DRINKING WATER FOR 4 WK, Promoter: NONE USED)	tumour outcome (control, treated, inhibition, significance) (Carcinogen: N-ETHYL-N'-NITRO-N-NITROSOGUANIDINE, 4245-77-6, Dose [Inhibitor]: 0.005% (0.15 MG/MOUSE/D) IN DRINKING WATER FOR 12 WK POST CARCINOGEN DOSE (STUDY DURATION: 16 WK), Route [Inhibitor]: ORAL, Species: MOUSE, Strain/Sex: C57BL/MALE, Target Tissue: Type of Lesion: DUODENUM: TUMOR, Dose [Carcinogen]: 100 MG/L DRINKING WATER FOR 4 WK, Promoter: NONE USED)	tumour outcome (control, treated, inhibition, significance) (Carcinogen: N-METHYL-N'-NITRO-N-NITROSOGUANIDINE, 70-25-7, Dose [Inhibitor]: 0, 0.05% IN DIET FOR 16 WK BEGINNING POST CARCINOGEN TREATMENT (STUDY DURATION: 44 WK), Route [Inhibitor]: ORAL, Species: RAT, Strain/Sex: WISTAR/MALE, Target Tissue: Type of Lesion: STOMACH: TUMOR, Dose [Carcinogen]: 80 MG/L IN DRINKING WATER FOR 28 WK, Promoter: NONE USED)	tumour outcome (control, treated, inhibition, significance) (Carcinogen: N-METHYL-N'-NITRO-N-NITROSOGUANIDINE, 70-25-7, Dose [Inhibitor]: 0, 0.05% IN DRINKING WATER FOR 15 WK (STUDY DURATION: 44 WK), Route [Inhibitor]: ORAL, Species: RAT, Strain/Sex: WISTAR/MALE, Target Tissue: Type of Lesion: GLANDULAR STOMACH: TUMOR, Dose [Carcinogen]: 80 MG/L IN DRINKING WATER FOR 28 WK, Promoter: NONE USED)	tumour outcome (control, treated, inhibition, significance) (Carcinogen: N-METHYL-N'-NITRO-N-NITROSOGUANIDINE, 70-25-7, Dose [Inhibitor]: 0, 0.05% IN DRINKING WATER FOR 15 WK BEGINNING POST CARCINOGEN TREATMENT (STUDY DURATION: 44 WK), Route [Inhibitor]: ORAL, Species: RAT, Strain/Sex: WISTAR/MALE, Target Tissue: Type of Lesion: GLANDULAR STOMACH: TUMOR, Dose [Carcinogen]: 80 MG/L IN DRINKING WATER FOR 28 WK, Promoter: NONE USED)	tumour outcome (control, treated, inhibition, significance) (Carcinogen: NONE USED, Dose [Inhibitor]: 0, 0.05% IN DRINKING WATER AD LIBITUM FOR 58 WK (STUDY DURATION: 65 WK), Route [Inhibitor]: ORAL, Species: MOUSE, Strain/Sex: C3H/HENCRJ/MALE, Target Tissue: Type of Lesion: LIVER: HEPATOMA, Promoter: NONE USED)	tumour outcome (control, treated, inhibition, significance) (Carcinogen: NONE USED, Dose [Inhibitor]: 0, 0.1% IN DRINKING WATER AD LIBITUM FOR 58 WK (STUDY DURATION: 65 WK), Route [Inhibitor]: ORAL, Species: MOUSE, Strain/Sex: C3H/HENCRJ/MALE, Target Tissue: Type of Lesion: LIVER: HEPATOMA, Promoter: NONE USED)	tumour outcome (control, treated, inhibition, significance) (Carcinogen: N-METHYL-N'-NITRO-N-NITROSOGUANIDINE, 70-25-7, Dose [Inhibitor]: 0, 200 UG/KG/D IN DRINKING WATER FOR 52 WK CONCURRENTLY WITH CARCINOGEN TREATMENT (STUDY DURATION: 52 WK), Route [Inhibitor]: ORAL, Species: RAT, Strain/Sex: SPRAGUE-DAWLEY/MALE, Target Tissue: Type of Lesion: GLANDULAR STOMACH: ADENOCARCINOMA, Dose [Carcinogen]: 120 MG/L IN DRINKING WATER FOR 52 WK, Promoter: NONE USED)
O=C(O[C@@H]1Cc2c(O)cc(O)cc2O[C@@H]1c1cc(O)c(O)c(O)c1)c1cc(O)c(O)c(O)c1	100%, 100%, 0%, not significant	100%, 70%, 30%, not calculated	14/14 (100%), 14/14 (100%), 0%, not significant	11/14 (79%), 12/14 (86%), -9%, not significant	14/14 (100%), 14/14 (100%), 0%, not significant	100%, 100%, 0%, not significant	63%, 20%, 68%, p<0.001	63%, 20%, 68%, p<0.001	10/16 (63%), 3/15 (20%), 68%, p<0.001	62%, 31%, 50%, p<0.05	21/34 (62%), 11/35 (31%), 50%, p<0.05	21/34 (62%), 11/35 (31%), 50%, p<0.05	15/18 (83%), 14/25 (56%), 33%, p<0.05	15/18 (83%), 12/23 (52%), 37%, p<0.05	–
CCCCC(C)(O)C/C=C/[C@H]1[C@H](O)CC(=O)[C@@H]1CCCCCCC(=O)OC (stereo not given in full)	–	–	–	–	–	–	–	–	–	–	–	–	–	–	9/15 (60%), 5/20 (25%), 58%, p<0.05
